Experimental data as given in patent publication US5008267A, “Pyrimidinedione compounds, method of producing the same and antiarrythmic agents containing the same” (Mitsui Toatsu Chemicals, Incorporated, priority 1988, dated 1991).
Counter-ions that a name gives are not always drawn.

Key:
[1] = Toxicity test, mortality rate 24 hours after administration; settings: mouse, in vivo
Method: Each of the compounds prepared in the above-mentioned examples was administered into a mouse (ddY strain, male). In each case, oral administration (p.o.) and intra peritoneal administration (i.p.) were separately carried out in a dose of 300 mg/kg and 250 mg/kg, respectively.
A mortality rate (number of specimens: one group=2 to 4 mice) of the mice 24 hours after the administration was calculated, and the results are set forth in Table 3.
Following the same procedure as in Toxicity Test 1, toxicity of the respective compounds prepared in the above examples in Table 5 was tested to calculate a mortality rate of mice.
Administration was made by oral administration (p.o.) in an amount of 300 mg/kg of each compound for one mouse.
Following the same procedure as in Toxicity Test 1, toxicity of the respective compounds prepared in the above examples in Table 7 was tested to calculate a mortality rate of mice.

[2] = tested on: Purkinje fiber of the right ventricular free wall (myocardial action potential); assay: Influence on myocardial action potential duration time (APD75), isolated right ventricular free wall, microelectrode in Purkinje fiber; format: cell-based, dog; settings: Canis lupus familiaris, 20 min, 20 minutes' incubation; for activation at 1 µg/mL: 1.0 μg/ml; for activation at 1 µg/mL / activation at 3 µg/mL / activation at 10 µg/mL: (B-A)/A×100, read-out: APD75 (%); for activation at 3 µg/mL: 3.0 μg/ml; for activation at 10 µg/mL: 10.0 μg/ml
[3] = tested on: ventricular muscle refractory period; assay: Influence on ventricular muscle refractory period (ERP); format: in vivo, mongrel dog; settings: Canis lupus familiaris, iv, i.v., (W-Y)/Y×100, read-out: ERP (%; extensibility of refractory period)
Method: (2) Influence on ventricular muscle refractory period Refractory periods were measured in the following manner before and after each of the compounds and d-sotalol shown in Table 2 was separately administered to a vein or a duodenum, and ERP (%; extensibility of refractory period) was calculated from the measured values: ERP (%)=(W-Y)/Y×100 W: Refractory period after administration Y: Refractory period before administration To a mongrel adult dog, 30 mg/kg of pentobarbital was administered intravenously, and after being anesthetized, a pair of silver-silver chloride electrodes separated by 3 mm was sewn on an opened right ventricule, and electrical stimulation was given at an interval of 400 msec at a duration time of 4 msec under a current twice as much as the threshold. Afterward, a small amount of alcohol was injected into a sinus artery in order to extinguish a pacemaker activity, and the ventricular refractory period (ERP) was measured under ventricule pacing. That is, each 1 train comprised 10 stimulations having intervals of 400 msec, and an interval between the trains was usually 400 msec. However, this interval was shortened 10 msec by 10 msec at the time of the refractory period measurement, and an interval between the trains at the time when reaction to the first stimulation of the train disappeared was regarded as the refractory period. In this case, the electrical stimulation was fed in accordance with a program by a heart stimulation device (Diamedical Co., Ltd.; DHM-226-3).

Row | Structure (SMILES) | mortality at 24 h ([1]; po, 300 mg/kg (p.o.)) [%] | activation at 0.3 µg/mL ([2]; 0.3 μg/ml, (B-A)/A×100) [%] | activation at 1 µg/mL [2] [%] | activation at 3 µg/mL [2] [%] | change in vivo at 0.1 mg/kg [3] [%] | change in vivo at 0.3 mg/kg [3] [%] | change in vivo at 1 mg/kg [3] [%] | change in vivo at 3 mg/kg [3] [%] | mortality at 24 h ([1]; ip, 250 mg/kg (i.p.)) [%] | activation at 10 µg/mL [2] [%]
1 | Cn1c(N2CCN(CCCOc3ccc([N+](=O)[O-])cc3C(O)c3ccccc3)CC2)cc(=O)n(C)c1=O (stereo not drawn) [Compound 148, 1,3-dimethyl-6-{4-<3-[2-(α-hydroxybenzyl)-4-nitrophenyloxy]propyl>piperazin-1-yl}-2,4(1H,3H)-pyrimidinedione oxalate] | 0 |  |  |  |  |  |  |  |  | 
2 | Cn1c(NCCN(CCO)CCCc2ccc([N+](=O)[O-])cc2)cc(=O)n(C)c1=O [Compound 8] | 0 | 16 | 22 | 38 | 0 | 10.7 | 21.4 | 14.2 | 0 | 
3 | Cn1c(N2CCN(CCCOc3ccc([N+](=O)[O-])cc3C(=O)c3ccccc3)CC2)cc(=O)n(C)c1=O [Compound 80, 1,3-dimethyl-6-{4-[3-(2-benzoyl-4-nitrophenoxy)propyl]piperazin-1-yl}-2,4(1H,3H)-pyrimidinedione oxalate] | 0 |  | 19 | 30 | 2.6 | 9.7 | 21.9 |  |  | 34
4 | Cn1c(N2CCN(Cc3ccc([N+](=O)[O-])cc3C(=O)c3ccccc3)CC2)cc(=O)n(C)c1=O [Compound 134, 1,3-dimethyl-6-{4-[(2-benzoyl-4-nitrophenyl)methyl]piperazin-1-yl}-2,4(1H,3)-pyrimidinedione oxalate] | 0 |  |  |  |  |  |  |  |  | 
5 | Cn1c(NCCNC(=O)c2ccc([N+](=O)[O-])cc2)cc(=O)n(C)c1=O [Compound 56, 1,3-dimethyl-6-[2-(4-nitrobenzoylamino)ethylamino]-2,4(1H,3H)-pyrimidinedione] | 50 |  |  |  | 6.7 | 6.7 | 6.7 |  |  | 
6 | Cn1c(N2CCN(CCCOc3ccc([N+](=O)[O-])cc3C(=O)c3ccccc3Cl)CC2)cc(=O)n(C)c1=O [Compound 105, 1,3-dimethyl-6-{4-<3-[2-(2-chlorobenzoyl)-4-nitrophenoxy]propyl>piperazin-1-yl}-2,4(1H,3H)-pyrimidinedione oxalate] | 0 |  | 11 | 23 | 0 | 0 | 6.3 | 6.3 |  | 28
7 | Cn1c(N2CCN(CCc3ccc([N+](=O)[O-])cc3C(=O)c3ccccc3)CC2)cc(=O)n(C)c1=O [Compound 133, 1,3-dimethyl-6-(4-[2-(2-benzoyl-4-nitrophenyl)ethyl]piperazin-1-yl)-2,4(1H,3H)-pyrimidinedione oxalate] | 0 |  |  |  | 6.3 | 6.3 | 18.8 |  |  | 
8 | Cn1c(N2CCN(CCCCOc3ccc([N+](=O)[O-])cc3)CC2)cc(=O)n(C)c1=O [Compound 54, 1,3-dimethyl-6-{4-[4-(4-nitrophenoxy)butyl]piperazin-1-yl}-2,4(1H,3H)-pyrimidinedione hydrochloride] | 0 |  |  | 15 |  |  |  |  |  | 26
9 | Cn1c(N2CCN(CCc3ccccc3[N+](=O)[O-])CC2)cc(=O)n(C)c1=O [Compound 10, 1,3-dimethyl-6-{4-[2-(2-nitrophenyl)ethyl]piperazin-1yl}-2,4(1H,3H)-pyrimidinedione oxalate] | 0 |  |  | 2 | 6.7 | 6.7 | 13.3 | 20 |  | 11
10 | Cn1c(N2CCN(CCCSc3ccc([N+](=O)[O-])cc3)CC2)cc(=O)n(C)c1=O [Compound 51, 1,3-dimethyl-6-{4-[3-(4-nitrophenylthio)propyl]piperazin-1-yl}-2,4(1H,3H)-pyrimidinedione oxalate] | 0 |  |  | 33 | 12.6 | 12.6 | 19 |  |  | 
11 | CC(=O)OCCN(CCCc1ccc([N+](=O)[O-])cc1)CCNc1cc(=O)n(C)c(=O)n1C [Compound 167, 1,3-dimethyl-6-{2-[N-(2-acetoxyethyl)-3-(4-nitrophenyl)propylamino]ethylamino}-2,4(1H,3H)-pyrimidinedione oxalate] | 0 |  | 16 | 21 | 8 | 8 | 15 | 15 |  | 26
12 | Cn1c(N2CCN(CCCCc3ccc([N+](=O)[O-])cc3)CC2)cc(=O)n(C)c1=O [Compound 34, 1,3-dimethyl-6-{4-[4-(4-nitrophenyl)butyl]piperazine-1-yl}-2,4(1H,3H)-pyrimidinedione hydrochloride] | 100 |  |  | 17 | 6 | 12 | 12 | 18 |  | 25
13 | Cn1c(NCCN(CCO)CCCCc2ccc([N+](=O)[O-])cc2)cc(=O)n(C)c1=O [Compound 23] | 0 |  | 18 | 35 |  |  |  |  |  | 39
14 | CCOC(=O)CN(CCCc1ccc([N+](=O)[O-])cc1)CCNc1cc(=O)n(C)c(=O)n1C [Compound 175, 1,3-dimethyl-6-{2-[N-ethoxycarbonylmethyl-3-(4-nitrophenyl)propylamino]ethylamino}-2,4(1H,3H)-pyrimidinedione oxalate] | 0 |  | 8 | 16 |  |  |  |  |  | 
15 | Cn1c(N2CCN(c3ccc([N+](=O)[O-])cc3C(=O)c3ccccc3)CC2)cc(=O)n(C)c1=O [Compound 128, 1,3-dimethyl-6-{4-(2-benzoyl-4-nitrophenyl)piperazin-1-yl}-2,4(1H,3H)-pyrimidinedione oxalate] | 0 |  |  |  |  |  |  |  |  | 
16 | CCN(CCCCc1ccc([N+](=O)[O-])cc1)CCNc1cc(=O)n(C)c(=O)n1C [Compound 22] | 0 |  |  |  |  |  |  |  | 50 | 
17 | Cn1c(NCCNc2ccc([N+](=O)[O-])cc2C(=O)c2ccccc2)cc(=O)n(C)c1=O [Compound 131, 1,3-dimethyl-6-[2-(2-benzoyl-4-nitroanilino)ethylamino]-2,4(1H,3H)-pyrimidinedione oxalate] | 0 |  |  |  |  |  |  |  |  | 
18 | Cn1c(N2CCN(CCNC(=O)c3ccc([N+](=O)[O-])cc3)CC2)cc(=O)n(C)c1=O [Compound 45, 1,3-dimethyl-6-{4-[2-(4-nitrobenzoylamino)ethyl]piperazin-1-yl}-2,4(1H,3H)-pyrimidinedione hydrochloride] | 0 |  |  |  |  |  |  |  |  | 
19 | CC(=O)c1ccc(OCCCN2CCN(c3cc(=O)n(C)c(=O)n3C)CC2)c([N+](=O)[O-])c1 [Compound 77, 1,3-dimethyl-6-{4-[3-(4-acetyl-2-nitrophenoxy)propyl]piperazin-1-yl}-2,4(1H,3H)-pyrimidinedione oxalate] | 0 |  |  |  |  |  |  |  |  | 
20 | Cn1c(N2CCN(CCCOc3c(Cl)cc([N+](=O)[O-])cc3Cl)CC2)cc(=O)n(C)c1=O [Compound 165, 1,3-dimethyl-6-{4-[3-(2,6-dichloro-4-nitrophenyloxy)propyl]piperazin-1-yl}-2,4(1H,3H)-pyrimidinedione hydrochloride] | 0 |  |  |  |  |  |  |  |  | 
21 | Cn1c(N2CCN(CCOc3ccc(C(=O)c4ccccc4)cc3[N+](=O)[O-])CC2)cc(=O)n(C)c1=O [Compound 103] | 0 |  |  |  |  |  |  |  |  | 
22 | Cn1c(N2CCN(CCOc3ccc([N+](=O)[O-])cc3C(=O)c3ccc(Br)cc3)CC2)cc(=O)n(C)c1=O [Compound 100] | 0 |  |  |  |  |  |  |  |  | 
